Laboratory results as given in US9326972B2, “Use of phenylmethimazoles, methimazole derivatives, and tautomeric cyclic thiones for the treatment of autoimmune/inflammatory diseases associated with toll-like receptor overexpression” (Ohio University, priority 2004, dated 2016).

What was measured:
[1] = tested on: IFN-β promoter; assay: IFN-β promoter luciferase reporter in FRTL-5 thyrocytes; assay type: cell-based, rat
Procedure: FIG. 5. Phenylmethimazole (CIO) and Methimazole (MMI) inhibit the ability of Poly (I:C), lipopolysaccharide (LPS) and IL-1β to increase IFN-β gene expression (Top Left) and IRF-3 transactivation (Top Right) in FRTL-5 thyrocytes. (Top Left) Cells were co-transfected with IFNβ-Luc and control vector (pRLTk-Int), then treated with or without (−) Poly (I:C) (100 μg/ml), LPS (100 ng/ml), or IL-1β (10 ng/ml) in the presence of the vehicle (DMSO) alone (−), C10, or MMI for 6 hours. Data was obtained with the Dual Luciferase Assay system. (Top Right) Cells were co-transfected with Gal4 DBD/IRF-3 and Gal4-Luc then treated with nothing (−), poly (I:C), LPS, or IL-1β as in (Top Left) in the presence of DMSO or C10 for 6 hours. Data was obtained by Luciferase assay. Also shown is a graphic depiction (Bottom) of how the cis reporting system is working. Data are representative of multiple experiments.
C10, at 0.5 mM, inhibited the ability of poly (I:C) to increase IFN-β promoter activity (luciferase luminescence; P<0.01) when incubated with FRTL-5 thyrocytes transfected with pIFN-β-luc constructs (FIG. 5 Top Left, Poly (I:C) vs untreated (−)).
Plasmids for Reporter Gene Assays. Human IRF-3 was amplified from human cDNA and cloned into pCR 2.1 by the TOPO/TA (Invitrogen, Carlsbad, Calif.) cloning method, and then sequenced. […]

[2] = tested on: mice; assay: Colitis model in mice (DSS); assay type: in vivo, mouse; conditions: 10 animals, 0.1 mg/kg, 14 days
[3] = tested on: horses; assay: LPS-induced endotoxemia and endotoxic shock in horses; assay type: in vivo, horse; conditions: for Dyspnea and Tachypnea / Lung Auscultation / Toxemia and Vascular Congestion / Toxemia, Vascular Congestion, Cyanosis: C10 2 mg/kg iv pretreatment
[4] = tested on: HAEC; assay: IFN-β-induced IRF-1 and Stat1 phosphorylation in human aortic endothelial cells (immunoblot); assay type: cell-based
[5] = tested on: mice; conditions: mouse, in vivo; cited from earlier work
[6] = tested on: human aortic endothelial cells (HAEC); conditions: cited from earlier work
[7] = LPS 10 μg/kg, C10 (1 mg/kg) iv pretreatment, time 0.15-6 hours

## Cn1c(-c2ccccc2)cnc1S [Compound C10, 5-Phenylmethimazole]
[1]; FRTL-5, LPS 100 ng/ml or IL-1β 10 ng/ml, 0.5 mM C-10, 5 mM MMI, P<0.05 or better
  LPS- or IL-1β-increased IFN-β luciferase activity: inhibited the increase
[1]; FRTL-5, Poly (I:C) 100 μg/ml, 6 hours, C10 0.5 mM, P<0.01
  poly (I:C)-increased IFN-β promoter activity (luciferase): inhibited
[2]; Ip freshly diluted in DMSO
  Survival % of Control: 100%
[2]; Oral stored in excipient 1 week
  Survival % of Control: 100%
[3]; LPS
  symptoms of endotoxemia (hypotension, hypoxemia, collapse, cardiac anoxia, acute renal failure): clearly blocked
[3]; LPS 10 μg/kg, 1 week
  Dyspnea and Tachypnea: Normal
  Lung Auscultation: Normal
  Toxemia and Vascular Congestion: Normal
  Toxemia, Vascular Congestion, Cyanosis: Normal
[3]; LPS 10 μg/kg, time 0.00 hours
  Dyspnea and Tachypnea: Normal
  Lung Auscultation: Normal
  Toxemia and Vascular Congestion: Normal
  Toxemia, Vascular Congestion, Cyanosis: Normal
[3]; LPS 10 μg/kg, time 0.15 hours
  Dyspnea and Tachypnea: Normal
  Toxemia, Vascular Congestion, Cyanosis: Normal
[3]; LPS 10 μg/kg, time 0.3 hours
  Dyspnea and Tachypnea: Normal
  Lung Auscultation: Normal
  Toxemia and Vascular Congestion: Weak Congestion
  Toxemia, Vascular Congestion, Cyanosis: Weak Congestion
[3]; LPS 10 μg/kg, time 3 hours
  Dyspnea and Tachypnea: Normal
  Lung Auscultation: Normal
  Toxemia and Vascular Congestion: Weak Congestion
  Toxemia, Vascular Congestion, Cyanosis: Weak Congestion
[3]; LPS 10 μg/kg, time 24 hours
  Dyspnea and Tachypnea: Normal
  Lung Auscultation: Normal
  Toxemia and Vascular Congestion: Normal
  Toxemia, Vascular Congestion, Cyanosis: Normal
[3]; LPS 10 μg/kg, C10 (1 mg/kg) iv pretreatment, 1 week
  abdominal pain, diarrhea, collapse or prostration: normal
[3]; LPS 10 μg/kg, C10 (1 mg/kg) iv pretreatment, time 0 hours
  abdominal pain, diarrhea, collapse or prostration: normal
[3]; [7]
  abdominal pain, diarrhea, collapse or prostration: Normal
  number of stools: 1 stool
[3]; LPS 10 μg/kg, C10 (1 mg/kg) iv pretreatment, time 24 hours
  abdominal pain, diarrhea, collapse or prostration: normal
[4]; 100 U/mL hIFN-β 2 hours, 1 mM C10
  Stat1 serine phosphorylation at residue 727: decreased
[4]; 2 hours, C10 1 mM
  IFN-β induced Stat1 phosphorylation (Y701): decrease
  IFN-β induction of IRF-1 protein: strongly decreased
[5]
  inflammatory response and survival in DSS induced colitis: suppress the inflammatory response and improve survival
[6]
  cytokine-induced HAEC expression of VCAM-1 (protein and mRNA): strongly inhibits
  monocytic cell adhesion to cytokine inflamed HAEC under in vitro flow conditions: inhibits
[6]; cytokine-induced, HAEC
  E-selectin expression: modest effect
  ICAM-1 expression: very little effect
